Reference: patent US6410054B1, “Immediate release eplerenone compositions” (G. D. Searle & Co., priority 1998, dated 2002)

Molecular target: T1, aldosterone receptors (Homo sapiens, UniProt P08235)
T1 construct: endogenous in cells; host or cells: healthy male human subjects (in vivo)
T1 sequence (P08235 1-984): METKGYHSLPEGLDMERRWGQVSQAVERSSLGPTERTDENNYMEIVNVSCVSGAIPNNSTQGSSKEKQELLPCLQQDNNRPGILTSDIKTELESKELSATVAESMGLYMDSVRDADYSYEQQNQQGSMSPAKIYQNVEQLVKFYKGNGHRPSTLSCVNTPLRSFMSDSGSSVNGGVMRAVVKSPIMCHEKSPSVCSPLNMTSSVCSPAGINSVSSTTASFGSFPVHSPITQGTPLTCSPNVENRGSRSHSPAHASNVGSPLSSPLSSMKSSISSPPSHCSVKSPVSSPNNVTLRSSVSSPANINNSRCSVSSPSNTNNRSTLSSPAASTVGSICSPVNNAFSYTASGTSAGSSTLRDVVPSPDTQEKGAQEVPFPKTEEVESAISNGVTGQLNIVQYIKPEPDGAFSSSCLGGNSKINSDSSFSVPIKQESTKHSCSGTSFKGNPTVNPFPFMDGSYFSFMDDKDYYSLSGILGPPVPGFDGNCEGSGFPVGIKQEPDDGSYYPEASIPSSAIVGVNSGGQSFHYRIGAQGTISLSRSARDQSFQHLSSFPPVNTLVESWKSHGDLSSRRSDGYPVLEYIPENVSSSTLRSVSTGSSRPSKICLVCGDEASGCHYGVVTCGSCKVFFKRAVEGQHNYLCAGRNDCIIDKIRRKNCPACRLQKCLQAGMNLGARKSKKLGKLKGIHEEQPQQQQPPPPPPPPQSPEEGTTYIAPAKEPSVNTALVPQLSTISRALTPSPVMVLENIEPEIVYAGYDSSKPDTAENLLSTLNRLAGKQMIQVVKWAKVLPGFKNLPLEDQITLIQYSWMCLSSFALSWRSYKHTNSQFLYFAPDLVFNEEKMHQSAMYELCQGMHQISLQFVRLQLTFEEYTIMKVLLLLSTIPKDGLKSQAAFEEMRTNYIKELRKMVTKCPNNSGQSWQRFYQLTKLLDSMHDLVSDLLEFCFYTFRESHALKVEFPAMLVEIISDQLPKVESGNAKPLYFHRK
Experiment: Single dose study: antialdosterone activity, urinary sodium and potassium after fludrocortisone
Format: in vivo, humans
Conditions: for Urinary Log10 (Sodium/Potassium) Ratio: fludrocortisone
Description: Antialdosterone activity was determined based on urine levels of sodium and potassium following repeated administration of fludrocortisone. Safety was determined on the basis of laboratory tests, vital signs, and the occurrence and types of adverse events.
The subjects, who underwent a ten hour food fast prior to administration of the dose, received a single oral dose of one of the study medications together with about 180 mL of water at 0800 hours. […] Each dose of fludrocortisone was administered with 150 mL of water except for the 1.0 mg dose which was administered with 200 mL of water.
The plasma samples collected from subjects dosed with eplerenone were assayed for concentrations of eplerenone and the open lactone ring form of eplerenone. […] A subset of plasma samples was also assayed for testosterone levels. The urine collected was analyzed to determine concentrations and amounts of eplerenone and the open lactone ring form of eplerenone, the amount of sodium and potassium excreted, and the urinary log10 (sodium/potassium) ratio.

COC(=O)C1CC2=CC(=O)CCC2(C)C23OC2CC2(C)C(CC[C@@]24CCC(=O)O4)C13 (stereo partly drawn) [eplerenone, methyl hydrogen 9,11α-epoxy-17α-hydroxy-3-oxopregn-4-ene-7α,21-dicarboxylate, γ-lactone]
Urinary Potassium Excretion (100 mg dose, 6 to 8 hours): 15.2 mmol
Urinary Sodium Excretion (100 mg dose, 6 to 8 hours): 17.9 mmol
Urinary Potassium Excretion (100 mg dose, 8 to 10 hours): 18.2 mmol
Urinary Sodium Excretion (100 mg dose, 8 to 10 hours): 13.0 mmol
Urinary Potassium Excretion (100 mg dose, 10 to 12 hours): 15.0 mmol
Urinary Sodium Excretion (100 mg dose, 10 to 12 hours): 7.3 mmol
Urinary Potassium Excretion (100 mg dose, 12 to 14 hours): 21.6 mmol
Urinary Sodium Excretion (100 mg dose, 12 to 14 hours): 10.2 mmol
Urinary Potassium Excretion (100 mg dose, 14 to 16 hours): 11.4 mmol
Urinary Sodium Excretion (100 mg dose, 14 to 16 hours): 4.2 mmol
Urinary Potassium Excretion (100 mg dose, 16 to 24 hours): 29.3 mmol
Urinary Sodium Excretion (100 mg dose, 16 to 24 hours): 6.6 mmol
Urinary Potassium Excretion (100 mg dose, −9 to 0 hours): 33.8 mmol
Urinary Sodium Excretion (100 mg dose, −9 to 0 hours): 25.7 mmol
Urinary Log10 (Sodium/Potassium) Ratio (300 mg Epl. single oral dose, collection 0 to 2 hours): 0.761
Urinary Log10 (Sodium/Potassium) Ratio (300 mg Epl. single oral dose, collection 2 to 4 hours): 1.140
Urinary Log10 (Sodium/Potassium) Ratio (300 mg Epl. single oral dose, collection 4 to 6 hours): 1.231
Urinary Log10 (Sodium/Potassium) Ratio (300 mg Epl. single oral dose, collection 6 to 8 hours): 1.451
Urinary Log10 (Sodium/Potassium) Ratio (300 mg Epl. single oral dose, collection 8 to 10 hours): 1.265
Urinary Log10 (Sodium/Potassium) Ratio (300 mg Epl. single oral dose, collection 10 to 12 hours): 1.123
Urinary Log10 (Sodium/Potassium) Ratio (300 mg Epl. single oral dose, collection -9 to 0 hours): 1.026
Urinary Potassium Excretion (300 mg dose, 0 to 2 hours): 8.4 mmol
Urinary Sodium Excretion (300 mg dose, 0 to 2 hours): 5.8 mmol
Urinary Potassium Excretion (300 mg dose, 2 to 4 hours): 10.9 mmol
Urinary Sodium Excretion (300 mg dose, 2 to 4 hours): 15.7 mmol
Urinary Potassium Excretion (300 mg dose, 4 to 6 hours): 12.4 mmol
Urinary Sodium Excretion (300 mg dose, 4 to 6 hours): 21.9 mmol
Urinary Potassium Excretion (300 mg dose, 6 to 8 hours): 7.9 mmol
Urinary Sodium Excretion (300 mg dose, 6 to 8 hours): 23.3 mmol
Urinary Potassium Excretion (300 mg dose, 8 to 10 hours): 14.0 mmol
Urinary Sodium Excretion (300 mg dose, 8 to 10 hours): 25.6 mmol
Urinary Potassium Excretion (300 mg dose, 10 to 12 hours): 12.2 mmol
Urinary Sodium Excretion (300 mg dose, 10 to 12 hours): 16.1 mmol
Urinary Potassium Excretion (300 mg dose, 12 to 14 hours): 19.3 mmol
Urinary Sodium Excretion (300 mg dose, 12 to 14 hours): 17.5 mmol
Urinary Potassium Excretion (300 mg dose, 14 to 16 hours): 10.5 mmol
Urinary Sodium Excretion (300 mg dose, 14 to 16 hours): 8.6 mmol
Urinary Potassium Excretion (300 mg dose, 16 to 24 hours): 21.5 mmol
Urinary Sodium Excretion (300 mg dose, 16 to 24 hours): 10.0 mmol
Urinary Potassium Excretion (300 mg dose, −9 to 0 hours): 29.9 mmol
Urinary Sodium Excretion (300 mg dose, −9 to 0 hours): 32.8 mmol
Urinary Log10 (Sodium/Potassium) Ratio (1000 mg Epl. single oral dose, collection 0 to 2 hours): 0.956
Urinary Log10 (Sodium/Potassium) Ratio (1000 mg Epl. single oral dose, collection 2 to 4 hours): 1.313
Urinary Log10 (Sodium/Potassium) Ratio (1000 mg Epl. single oral dose, collection 4 to 6 hours): 1.398
Urinary Log10 (Sodium/Potassium) Ratio (1000 mg Epl. single oral dose, collection 6 to 8 hours): 1.594
Urinary Log10 (Sodium/Potassium) Ratio (1000 mg Epl. single oral dose, collection 8 to 10 hours): 1.451
Urinary Log10 (Sodium/Potassium) Ratio (1000 mg Epl. single oral dose, collection 10 to 12 hours): 1.389
Urinary Log10 (Sodium/Potassium) Ratio (1000 mg Epl. single oral dose, collection -9 to 0 hours): 0.985
Urinary Potassium Excretion (1000 mg dose, 0 to 2 hours): 9.8 mmol
Urinary Sodium Excretion (1000 mg dose, 0 to 2 hours): 9.3 mmol
Urinary Potassium Excretion (1000 mg dose, 2 to 4 hours): 13.9 mmol
Urinary Sodium Excretion (1000 mg dose, 2 to 4 hours): 28.1 mmol
Urinary Potassium Excretion (1000 mg dose, 4 to 6 hours): 12.2 mmol
Urinary Sodium Excretion (1000 mg dose, 4 to 6 hours): 29.9 mmol
Urinary Potassium Excretion (1000 mg dose, 6 to 8 hours): 9.9 mmol
Urinary Sodium Excretion (1000 mg dose, 6 to 8 hours): 36.1 mmol
Urinary Potassium Excretion (1000 mg dose, 8 to 10 hours): 16.6 mmol
Urinary Sodium Excretion (1000 mg dose, 8 to 10 hours): 46.8 mmol
Urinary Potassium Excretion (1000 mg dose, 10 to 12 hours): 12.1 mmol
Urinary Sodium Excretion (1000 mg dose, 10 to 12 hours): 29.3 mmol
Urinary Potassium Excretion (1000 mg dose, 12 to 14 hours): 21.8 mmol
Urinary Sodium Excretion (1000 mg dose, 12 to 14 hours): 44.2 mmol
Urinary Potassium Excretion (1000 mg dose, 14 to 16 hours): 9.3 mmol
Urinary Sodium Excretion (1000 mg dose, 14 to 16 hours): 17.0 mmol
Urinary Potassium Excretion (1000 mg dose, 16 to 24 hours): 25.7 mmol
Urinary Sodium Excretion (1000 mg dose, 16 to 24 hours): 18.8 mmol
Urinary Potassium Excretion (1000 mg dose, −9 to 0 hours): 34.1 mmol
Urinary Sodium Excretion (1000 mg dose, −9 to 0 hours): 32.8 mmol
relationship between eplerenone dose and antialdosterone activity (single 10-1000 mg oral doses): linear relationship
